In patent EP0820989A1, “IMIDAZOLE DERIVATIVES AND MEDICINAL COMPOSITION THEREOF” (YAMANOUCHI PHARMACEUTICAL CO., LTD., priority 1995, dated 1996):
Read-outs that look alike come from different tables or passages of the source.

Target: T1, rat steroid 17-20 lyase (Rattus norvegicus, UniProt P11715)
T1 construct: Testes were excised from ten-week-old male Wistar rats, homogenized and then centrifuged to give microsomes; from tissue; host or cells: testis microsomes of ten-week-old male Wistar rats
T1 sequence (P11715 1-507): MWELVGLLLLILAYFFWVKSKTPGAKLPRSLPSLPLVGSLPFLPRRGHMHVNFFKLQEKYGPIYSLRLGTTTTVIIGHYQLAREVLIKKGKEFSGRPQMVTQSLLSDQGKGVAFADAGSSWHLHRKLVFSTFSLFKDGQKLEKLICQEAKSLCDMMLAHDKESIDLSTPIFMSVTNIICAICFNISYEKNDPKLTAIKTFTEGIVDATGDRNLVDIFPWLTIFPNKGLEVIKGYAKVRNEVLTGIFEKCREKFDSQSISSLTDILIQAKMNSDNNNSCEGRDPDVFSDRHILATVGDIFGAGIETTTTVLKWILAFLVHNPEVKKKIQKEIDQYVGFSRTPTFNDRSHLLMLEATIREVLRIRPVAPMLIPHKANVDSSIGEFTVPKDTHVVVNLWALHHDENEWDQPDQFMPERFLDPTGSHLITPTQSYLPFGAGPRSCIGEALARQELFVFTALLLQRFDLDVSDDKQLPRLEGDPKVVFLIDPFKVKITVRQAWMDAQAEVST
Experiment: Measurement of inhibition of rat steroid 17-20 lyase activity [in vitro]
Assay type: biochemical
Description: (1) Measurement of inhibition of rat steroid 17-20 lyase activity [in vitro]
This was carried out in accordance with the method described in J. Steroid Biochem., Vol.33, No.6, 1191-1195 (1989).
Testes were excised from ten-week-old male Wistar rats, homogenized and then centrifuged to give microsomes. The microsomal protein (50 µg), 1 µM of [1,2-^3H]-17α-hydroxyprogesterone (5.55 × 10^5 dpm) and a test compound were dissolved in 100 µl of 50 mM phosphate buffer (pH 7.4), NADPH solution was added, and then the mixture was incubated at 37°C for 60 minutes. Then, 400 µl of a mixed solution of methanol and tetrahydrofuran (2:3) was added, and the mixture was subjected to centrifugation, and then radioactivities of the substrate and the formed product (androstenedione and testosterone) in the resulting supernatant were measured by a high performance liquid chromatography (HPLC) equipped with a radioisotope detector to examine the activity of the test compound to inhibit steroid 17-20 lyase.

IC50 (rat testis microsomes (50 µg protein), 1 µM [1,2-3H]-17α-hydroxyprogesterone, NADPH, pH 7.4, 37°C, 60 minutes, HPLC, read-out: Inhibition of steroid 17-20 lyase activity IC50)	SMILES	IC50
	CCCn1cncc1Cc1ccc2c(c1)[nH]c1ccccc12 [Example 13, 2-[(1-Propyl-1H-imidazol-5-yl)methyl]-9H-carbazole]	2.5 nM
12.7 nM	Fc1ccc2c(c1)[nH]c1cc(Cc3cccnc3)ccc12 [Control compound, reference compound]	
	CC(c1ccc2c(c1)[nH]c1ccccc12)c1c[nH]cn1 (stereo not drawn) [Example 1e, 2-[1-(1H-Imidazol-4-yl)ethyl]-9H-carbazole]	3.9 nM
